Experimental data taken from PMC11361989, “A simple HPLC–MS/MS method for the determination of polymyxin B in human plasma and its application in the pharmacokinetic study in elderly patients infected with multidrug-resistant Gram-negative bacteria” (Frontiers in Pharmacology, 2024).

Legend:
[1] = Stability of working solutions of PB1 and PB2; assay type: physicochemical; details: working solutions in 1% aqueous formic acid at LQC and HQC concentrations, stored at −70°C
Protocol: All the above solutions were stored at −70°C.

[2] = Stability of PB1 and PB2 in human whole blood at room temperature or 4°C; details: clinical TDM whole blood, plasma by HPLC-MS/MS
[3] = Stability of PB1 and PB2 in human plasma under different storage conditions; details: human plasma, n = 3

For polymyxin B1 [PB1], the “Stability of working solutions” value [1] was “remained stable after storage at −70 °C for up to 7 days but not beyond 10 days”, the “Concentration after storage in human blood” value (“Concentration after storage” below) ([2]; 4°C, 0 h (initial), parallel sample 1) was 4690 ng/mL and the “Concentration after storage” value ([2]; 4°C, 0 h (initial), parallel sample 2) was 4720 ng/mL. For the same substance, the “Concentration after storage” value ([2]; 4°C, 0.5 h, parallel sample 1) was 4290 ng/mL, the “Concentration after storage” value ([2]; 4°C, 0.5 h, parallel sample 2) was 4120 ng/mL and the “Concentration after storage” value ([2]; 4°C, 1 h, parallel sample 1) was 4420 ng/mL. The “Concentration after storage” value ([2]; 4°C, 1 h, parallel sample 2) was 4350 ng/mL, the “Concentration after storage” value ([2]; 4°C, 2 h, parallel sample 1) was 5100 ng/mL and the “Concentration after storage” value ([2]; 4°C, 2 h, parallel sample 2) was 4890 ng/mL. The “Concentration after storage” value ([2]; 4°C, 3 h, parallel sample 1) was 5250 ng/mL, the “Concentration after storage” value ([2]; 4°C, 3 h, parallel sample 2) was 5320 ng/mL and the “Concentration after storage” value ([2]; 4°C, 4 h, parallel sample 1) was 5130 ng/mL. For the same substance, the “Concentration after storage” value ([2]; 4°C, 4 h, parallel sample 2) was 4950 ng/mL, the “Concentration after storage” value ([2]; 4°C, 5 h, parallel sample 1) was 4820 ng/mL and the “Concentration after storage” value ([2]; 4°C, 5 h, parallel sample 2) was 4820 ng/mL. For the same substance, the “Concentration after storage” value ([2]; 4°C, 8 h, parallel sample 1) was 4460 ng/mL, the “Concentration after storage” value ([2]; 4°C, 8 h, parallel sample 2) was 4850 ng/mL and the “Concentration after storage” value ([2]; 4°C, 12 h, parallel sample 1) was 4560 ng/mL. The “Concentration after storage” value ([2]; 4°C, 12 h, parallel sample 2) was 4680 ng/mL, the “Concentration after storage” value ([2]; 4°C, 24 h, parallel sample 1) was 4690 ng/mL and the “Concentration after storage” value ([2]; 4°C, 24 h, parallel sample 2) was 5280 ng/mL. For the same substance, the “Concentration after storage” value ([2]; room temperature (25°C), 0 h (initial), parallel sample 1) was 6890 ng/mL, the “Concentration after storage” value ([2]; room temperature (25°C), 0 h (initial), parallel sample 2) was 6660 ng/mL and the “Concentration after storage” value ([2]; room temperature (25°C), 0.5 h, parallel sample 1) was 6830 ng/mL. For the same substance, the “Concentration after storage” value ([2]; room temperature (25°C), 0.5 h, parallel sample 2) was 6630 ng/mL, the “Concentration after storage” value ([2]; room temperature (25°C), 1 h, parallel sample 1) was 6130 ng/mL and the “Concentration after storage” value ([2]; room temperature (25°C), 1 h, parallel sample 2) was 6130 ng/mL. For the same substance, the “Concentration after storage” value ([2]; room temperature (25°C), 2 h, parallel sample 1) was 6700 ng/mL, the “Concentration after storage” value ([2]; room temperature (25°C), 2 h, parallel sample 2) was 6150 ng/mL and the “Concentration after storage” value ([2]; room temperature (25°C), 3 h, parallel sample 1) was 7160 ng/mL. The “Concentration after storage” value ([2]; room temperature (25°C), 3 h, parallel sample 2) was 6780 ng/mL, the “Concentration after storage” value ([2]; room temperature (25°C), 4 h, parallel sample 1) was 6420 ng/mL and the “Concentration after storage” value ([2]; room temperature (25°C), 4 h, parallel sample 2) was 6420 ng/mL. For the same substance, the “Concentration after storage” value ([2]; room temperature (25°C), 5 h, parallel sample 1) was 6890 ng/mL, the “Concentration after storage” value ([2]; room temperature (25°C), 5 h, parallel sample 2) was 6710 ng/mL and the “Concentration after storage” value ([2]; room temperature (25°C), 8 h, parallel sample 1) was 6970 ng/mL. For the same substance, the “Concentration after storage” value ([2]; room temperature (25°C), 8 h, parallel sample 2) was 6650 ng/mL, the “Concentration after storage” value ([2]; room temperature (25°C), 12 h, parallel sample 1) was 7950 ng/mL and the “Concentration after storage” value ([2]; room temperature (25°C), 12 h, parallel sample 2) was 8190 ng/mL. For the same substance, the “Concentration after storage” value ([2]; room temperature (25°C), 24 h, parallel sample 1) was 7050 ng/mL, the “Concentration after storage” value ([2]; room temperature (25°C), 24 h, parallel sample 2) was 6720 ng/mL and the “Stability in human plasma, RE” value ([3]; 4°C for 24 h, target PB1 2.00 / PB2 0.20 μg/mL (LQC)) was “+3.25%”. For the same substance, the “Stability in human plasma, RE” value ([3]; 4°C for 24 h, target PB1 9.01 / PB2 0.92 μg/mL (MQC)) was −7.38%, the “Stability in human plasma, RE” value ([3]; 4°C for 24 h, target PB1 18.02 / PB2 1.84 μg/mL (HQC)) was −3.87% and the “Stability in human plasma, RE” value ([3]; room temp. for 24 h, target PB1 2.00 / PB2 0.20 μg/mL (LQC)) was −11.99%. For the same substance, the “Stability in human plasma, RE” value ([3]; room temp. for 24 h, target PB1 9.01 / PB2 0.92 μg/mL (MQC)) was “+5.18%”, the “Stability in human plasma, RE” value ([3]; room temp. for 24 h, target PB1 18.02 / PB2 1.84 μg/mL (HQC)) was “+6.19%” and the “Stability in human plasma, RE” value ([3]; three freeze–thaw cycles, target PB1 2.00 / PB2 0.20 μg/mL (LQC)) was −4.15%. The “Stability in human plasma, RE” value ([3]; three freeze–thaw cycles, target PB1 9.01 / PB2 0.92 μg/mL (MQC)) was “+3.09%”, the “Stability in human plasma, RE” value ([3]; three freeze–thaw cycles, target PB1 18.02 / PB2 1.84 μg/mL (HQC)) was “+1.01%” and the “Stability in human plasma, RE” value ([3]; −70°C for 85 days, target PB1 2.00 / PB2 0.20 μg/mL (LQC)) was −2.50%. The “Stability in human plasma, RE” value ([3]; −70°C for 85 days, target PB1 9.01 / PB2 0.92 μg/mL (MQC)) was “+0.10%” and the “Stability in human plasma, RE” value ([3]; −70°C for 85 days, target PB1 18.02 / PB2 1.84 μg/mL (HQC)) was “+1.95%”.
